The text below walks through data of doi:10.1101/2025.08.13.670122v1 (bioRxiv, 2025).

Read-outs that look alike come from different tables or passages of the source.

In one assay the target is T1, AT1R (Homo sapiens, UniProt P30556).
T1 sequence (P30556 1-359): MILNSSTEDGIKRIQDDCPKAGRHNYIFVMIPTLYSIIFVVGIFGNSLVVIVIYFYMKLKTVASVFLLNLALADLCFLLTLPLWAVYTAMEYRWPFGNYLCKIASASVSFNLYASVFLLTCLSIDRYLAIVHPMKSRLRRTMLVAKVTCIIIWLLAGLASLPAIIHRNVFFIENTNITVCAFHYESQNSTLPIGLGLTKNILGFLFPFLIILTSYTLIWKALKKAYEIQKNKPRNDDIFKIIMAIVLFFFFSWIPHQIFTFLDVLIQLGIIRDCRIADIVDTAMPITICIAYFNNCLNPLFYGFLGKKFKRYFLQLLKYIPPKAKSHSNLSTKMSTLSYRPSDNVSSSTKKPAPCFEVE
Put plainly: 125I-AngII displacement binding on HEK293 cells expressing human AT1R. More on the design: expressed in transfected cells; host or cells: HEK293 cells, transient; freeze-thaw broken cells. The settings on record: SEM; read-out: Ki (apparent affinity). The procedure: HEK293 cells, transiently expressing the human AT1R (3 million cells transfected with 4 μg of AT1R plasmid), were washed once with PBS and submitted to one freeze-thaw cycle. […] Binding assays were carried out in 96-well plates. […] The incubation mixtures were filtered through binding plates (MultiScreen HTS, Merck Millipore, Cork, Ireland) and preincubated with the washing buffer for 1 h at 4°C to remove unbound ligands. The filtered membranes were washed thrice with 200 µL cold binding buffer (4°C). The filters with membranes were retrieved with punch tips (Filter Plates Punch Tips, Merck Millipore, Cork, Ireland). […] The dissociation constant (Ki value) was determined from the IC50 using the Cheng-Prusoff equation and presented as a mean ± SEM of three independent experiments, each conducted in duplicate. VSMC cells were seeded at 80,000 cells per well in poly-ornithine-coated 24-wells. […] The next day, cells were washed thrice with ice-cold PBS, solubilized in 0.5 mL of 0.2 M NaOH/0.05% SDS, and bound radioactivity was counted using a PerkinElmer Wizard 1470 automatic γ-counter. Protein quantities were evaluated using a Bradford assay.

Another assay has as its target T2, endogenous AT1R (Rattus norvegicus, UniProt P25095).
T2 construct: expressing low levels of endogenous AT1R; endogenous in cells; host or cells: rat primary VSMC, passages 13-15
T2 sequence (P25095 1-359): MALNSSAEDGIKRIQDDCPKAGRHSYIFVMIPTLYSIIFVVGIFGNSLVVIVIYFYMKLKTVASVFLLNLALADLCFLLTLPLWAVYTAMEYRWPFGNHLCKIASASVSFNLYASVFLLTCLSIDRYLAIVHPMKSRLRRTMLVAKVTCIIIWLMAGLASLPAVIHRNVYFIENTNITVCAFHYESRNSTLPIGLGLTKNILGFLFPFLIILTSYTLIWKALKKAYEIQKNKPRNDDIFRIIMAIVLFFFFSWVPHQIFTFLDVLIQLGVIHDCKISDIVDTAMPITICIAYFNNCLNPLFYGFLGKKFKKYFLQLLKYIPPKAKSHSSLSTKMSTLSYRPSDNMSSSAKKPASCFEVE
Put plainly: Rho BRET sensor in rat primary VSMC with endogenous AT1R. Particulars: for Emax Rho in VSMCs (% AngII): Rho sensor, for 12 and TRV027 response at 10 μM; for EC50: adenoviral Rho BRET sensor, 1 min 30 s stimulation, mean ± SEM of at least three to five independent experiments, read-out: EC50 Rho in VSMCs. In kind it is cell-based. The source says: We next assessed the analogs’ ability to engage Gαq by assessing either the PKC or Rho responses in rat primary vascular smooth muscle cell (VSMC) culture, expressing low levels of endogenous AT1R (between 25–50 fmol/mg) (Figure 4, Table 6).
The coding regions of the PKC-c1b sensor, PKN-RBD-RlucII, and rGFPcaax were PCR-amplified and subcloned into the KpnI/XhoI sites of the pENTR3C vector (Invitrogen), respectively. These were then transferred into the adenoviral expression vector pAd/CMV/V5-DEST (Invitrogen), via gateway cloning (pAD-CMV-PKC-c1b, pAD-CMV-PKN-RBD-RLucII, and pAD-CMV-rGFPcaax). Viruses containing the sensor codes were generated following a previously outlined process.[49] […] The following day, cells were transfected with 4 µg of PacI-digested pAd5-CMVsensors using Lipofectamine 2000 (Invitrogen). After 7–10 days post-transfection, mature virus particles were gleaned via the collection of cells and media, which then underwent multiple cycles of freezing and thawing, followed by centrifugation. The harvested virus was amplified by re-infection on 100-mm dishes of confluent HEK293A cells, and harvested 48-72 h later. Viral titers were determined by serial dilution of adenovirus stock and subsequent infection of HEK293A cells in 96-well plates. 36 h after infection, cells were stained using an anti-hexon antibody (ab8249; Abcam), and hexon-expressing cells were tallied via fluorescence microscopy. The virus was then stored at −80°C. After this, rat VSMCs (between the 13th to 15th passages) were seeded at a density of 20,000 cells in each well of white 96-well plates 24 h before transduction with the viral vector. The cells were then transduced with the PKC sensor-adenovirus (3 μL per well) or Rho sensor (1 μL each per well of PKN-RBD-RLucII-adnovirus and rGFP-caax adenovirus). After 24 h, the medium was replaced. 48 h post-viral transduction, the cells were thoroughly washed with Tyrode’s buffer. Finally, BRET assays were carried out as detailed below.
On the day of the experiment, each well was washed with 80 µL of Tyrode’s buffer (140 mM NaCl, 2.7 mM KCl, 1 mM CaCl2, 12 mM NaHCO3, 5.6 mM D-glucose, 0.5 mM MgCl2, 0.37 mM NaH2PO4, 25 mM Hepes (pH 7.4)). This was followed by incubation for 1 h in Tyrode’s buffer at room temperature. For the Gαq, β-arrestin-2, and PKC biosensors used in HEK293 cells, coelenterazine 400A (at a final concentration of 5 μM) was added 10 min before stimulation. Cells were then stimulated with increasing doses of the indicated ligand, and BRET signals were measured using a Tristar2 (Berthold) microplate reader 10 min later. For the PKC and Rho biosensors in VSMCs, and the Rho biosensor in ΔG12/13 cells, cells were similarly stimulated with ligands for 1 min, 1 min 30 s, and 3 min, respectively, before BRET measurement. […] BRET signals were then measured using a Synergy2 (BioTek) microplate reader. The applied filter set was 410/80 nm and 515/30 nm, designed to detect the light emissions of RlucII (Renilla luciferase) (donor) and rGFP (acceptor), respectively.

One may read the EC50 as the concentration at which the effect is half-maximal.

As to `CC[C@H](C)[C@H](NC(=O)[C@H](Cc1ccc(O)cc1)NC(=O)[C@@H](NC(=O)[C@H](CCCNC(=N)N)NC(=O)[C@@H](N)CC(=O)O)C(C)C)C(=O)N[C@@H](Cc1c[nH]cn1)C(=O)N1CCC[C@H]1C(=O)N[C@@H](Cc1ccc(OC)cc1)C(=O)O` [compound 11], at AT1R, the Ki was found to be 0.23 ± 0.18 nM. In addition, on endogenous AT1R, the “Emax Rho in VSMCs (% AngII)” value came to 92 % AngII. In addition, the EC50 on endogenous AT1R (SEM) was 39.1 ± 11 nM.
Regarding `CC[C@H](C)[C@H](NC(=O)[C@H](Cc1ccc(O)cc1)NC(=O)[C@@H](NC(=O)[C@H](CCCNC(=N)N)NC(=O)[C@@H](N)CC(=O)O)C(C)C)C(=O)N[C@@H](Cc1c[nH]cn1)C(=O)N1CCC[C@H]1C(=O)N[C@@H](Cc1ccc(OCc2ccccc2)cc1)C(=O)O` [compound 12], the Ki on AT1R was determined as 1.4 ± 0.2 nM. In addition, on endogenous AT1R, the “Emax Rho in VSMCs (% AngII)” value is recorded as 12 % AngII and the EC50 was above 10000 nM.
